Laboratory results taken from the NIST ThermoML archive (doi:10.1021/acs.jced.8b00692).
“And” between values parts separate entries of the source, which are not always exact repeats. Identical values can stand only once.

Legend:
[1] = Liquid; for viscosity: Concentric cylinders viscometry; for speed of sound: Single path-length method; for mass density: Vibrating tube method
[2] = xn = mol fraction of the nth substance listed; conditions: 102 kPa, Liquid, x2 = 0; for viscosity: Concentric cylinders viscometry; for mass density: Vibrating tube method

CCCCCCCC1CCCCC1 [heptylcyclohexane]
[1], 102 kPa
Conditions | mass density [kg/m3] | viscosity [mPa·s]
293.15 K | 810.99 | 2.8
303.15 K | 803.96 | 2.26
313.15 K | 796.93 | 1.86
323.15 K | 789.89 | 1.56
333.15 K | 782.83 | 1.33
343.15 K | 775.8 | 1.15
353.15 K | 768.7 | 0.993
363.15 K | 761.6 | 0.892
373.15 K | 754.4 | 0.776

[1], 102 kPa, Frequency=3 MHz
Conditions | speed of sound [m/s]
293.15 K | 1374.4
303.15 K | 1336.1
313.15 K | 1298.7
323.15 K | 1262.1
333.15 K | 1226.5

CCCC1CCCCC1 [1-cyclohexylpropane]
[1], 102 kPa
Conditions | mass density [kg/m3] | viscosity [mPa·s]
293.15 K | 793.54 | 0.996
303.15 K | 785.73 | 0.86
313.15 K | 777.9 | 0.75
323.15 K | 770.04 | 0.663
333.15 K | 762.12 | 0.584
343.15 K | 754.2 | 0.544
353.15 K | 746.1 | 0.477
363.15 K | 738 | 0.452

[1], 102 kPa, Frequency=3 MHz
Conditions | speed of sound [m/s]
293.15 K | 1307.8
303.15 K | 1266.2
313.15 K | 1225.6
323.15 K | 1185.9
333.15 K | 1147.3

CCCCCCCCCC1CCCCC1 [nonylcyclohexane]
[1], 102 kPa
Conditions | mass density [kg/m3] | viscosity [mPa·s]
293.15 K | 816.41 | 4.34
303.15 K | 809.57 | 3.39
313.15 K | 802.74 | 2.72
323.15 K | 795.8 | 2.22
333.15 K | 789.05 | 1.85
343.15 K | 782.2 | 1.57
353.15 K | 775.4 | 1.35
363.15 K | 768.5 | 1.2
373.15 K | 761.6 | 1.03

[1], 102 kPa, Frequency=3 MHz
Conditions | speed of sound [m/s]
293.15 K | 1397.2
303.15 K | 1359.6
313.15 K | 1322.9
323.15 K | 1287.1
333.15 K | 1252.2

CCCCCCCCCCC1CCCCC1 [decylcyclohexane]
[1], 102 kPa
Conditions | mass density [kg/m3] | viscosity [mPa·s]
293.15 K | 818.55 | 5.32
303.15 K | 811.78 | 4.09
313.15 K | 805.02 | 3.23
323.15 K | 798.27 | 2.62
333.15 K | 791.5 | 2.16
343.15 K | 784.8 | 1.82
353.15 K | 778 | 1.55
363.15 K | 771.2 | 1.34
373.15 K | 764.4 | 1.17

[1], 102 kPa, Frequency=3 MHz
Conditions | speed of sound [m/s]
293.15 K | 1406.7
303.15 K | 1369.4
313.15 K | 1333
323.15 K | 1297.5
333.15 K | 1262.9

CCCCCCCCCCCCCCCC [hexadecane] + CCCCCCC1CCCCC1
[2]
Conditions | mass density [kg/m3] | viscosity [mPa·s]
293.15 K | 773.37 | 3.47
303.15 K | 766.43 | 2.76
313.15 K | 759.51 | 2.24
323.15 K | 752.61 | 1.86
333.15 K | 745.69 | 1.56
343.15 K | 738.8 | 1.35
353.15 K | 731.9 | 1.15
363.15 K | 724.9 | 1.02

CCCCCC1CCCCC1 [pentylcyclohexane]
[1], 102 kPa
Conditions | mass density [kg/m3] | viscosity [mPa·s]
293.15 K | 804.11 | 1.7
303.15 K | 796.8 | 1.42
313.15 K | 789.47 | 1.21
323.15 K | 782.12 | 1.04
333.15 K | 774.74 | 0.895
343.15 K | 767.3 | 0.799
353.15 K | 759.9 | 0.709
363.15 K | 752.4 | 0.637

[1], 102 kPa, Frequency=3 MHz
Conditions | speed of sound [m/s]
293.15 K | 1345.9
303.15 K | 1306.4
313.15 K | 1267.8
323.15 K | 1230.1
333.15 K | 1193.4

CCCCCCCCCCCCCCCC [hexadecane]
[1]
Conditions | mass density, 102 kPa | speed of sound, 101.33 kPa [m/s] | viscosity, 102 kPa [mPa·s]
293.15 K | 773.37 kg/m3 | 1357.4 | 3.47
303.15 K | 766.43 kg/m3 | 1319.6 | 2.76
313.15 K | 759.51 kg/m3 | 1282.9 | 2.24
323.15 K | 752.61 kg/m3 | 1247 | 1.86
333.15 K | 745.69 kg/m3 | 1212.1 | 1.56
343.15 K | 738.78 kg/m3 and 738.8 kg/m3 | – | 1.35
353.15 K | 731.9 kg/m3 | – | 1.15
363.15 K | 724.9 kg/m3 | – | 1.02
373.15 K | 717.9 kg/m3 | – | 0.885

CCCCCCCCCCCCCCCC [hexadecane] + CCCCCCCCC1CCCCC1
[2]
Conditions | mass density [kg/m3] | viscosity [mPa·s]
293.15 K | 773.37 | 3.47
303.15 K | 766.43 | 2.76
313.15 K | 759.51 | 2.24
323.15 K | 752.61 | 1.86
333.15 K | 745.69 | 1.56
343.15 K | 738.8 | 1.35
353.15 K | 731.9 | 1.15
363.15 K | 724.9 | 1.02
373.15 K | 717.9 | 0.885
